Patent US20120065228A1, “COMPOSITIONS AND METHODS FOR TREATING, CONTROLLING, REDUCING, OR AMELIORATING OCULAR INFLAMMATORY WITH LOWER RISK OF INCREASED INTRAOCULAR PRESSURE” (priority 2007, published 2012)
Where “and” joins values, the source holds several entries; their conditions need not be identical. Equal entries are not always repeated. Where two headings read alike, the source gives them in different places.

Key:
Assay type in all cases: in vivo
[1] = test system: New Zealand White rabbits
Procedure: On Days 1-31, animals received daily topical doses of the appropriate test article into the right eye. Animals were dosed four times per day, with doses administered 2 hours apart. Doses were administered using a calibrated 50-μL pipette. The eyelids were held close for 10 seconds immediately following dosing. The time of each dose administration was recorded.
Animals determined to be moribund were euthanized with an intravenous injection of commercial euthanasia solution.

rabbit eye [2] = assay: Pupillary diameter measurement, rabbit paracentesis model; conditions: individual eyes; for Pupillary diameter T2: −5 min: 5 min before the first paracentesis; for Pupillary diameter T3: +115 min: 5 min before the second paracentesis; for Pupillary diameter Δ(T3 − T1): +115 min minus −180 min; for Pupillary diameter T1: −180 min: basal
Procedure: (§1) Each rabbit was placed in a restraint device and tagged with the alphanumeric code. The formulations were instilled (50 μl) into the conjunctival sac of both eyes 180, 120, 90 and 30 min before the first paracentesis; then 15, 30, 90 min after the first paracentesis. To perform the first paracentesis the animals were anaesthetized by intravenous injection of 5 mg/kg Zoletil® (Virbac; 2.5 mg/kg tiletamine HCl and 2.5 mg/kg zolazepam HCl) and one drop of local anesthetic (Novesina®, Novartis) was administered to the eye. Anterior chamber paracentesis was performed with a 26 G needle attached to a tuberculin syringe; the needle was introduced into the anterior chamber through the cornea, taking care not to damage the tissues. Two hours after the ® first paracentesis, the animals were sacrificed with 0.4 ml Tanax® (Intervet International B.V.) and the second paracentesis was performed. About 100 μl of aqueous humor were removed at the second paracentesis. Aqueous humor was immediately split in four aliquots and stored at −80° C. until analysis. Then both eyes were enucleated and the iris-ciliary body was carefully excised, placed in polypropylene tubes, and stored at −80° C. until analysis.
The pupillary diameter of both eyes was measured with a Castroviejo caliper 180 min and 5 min before the first paracentesis and 5 min before the second paracentesis.
(§2) Pupillary diameter, PGE2, protein, PMN, and MPO were expressed as mean±SEM. Statistical analysis was performed using one way ANOVA followed by a Newman-Keuls post hoc test. Clinical score was expressed as % of eyes and the statistical analysis was performed using Kruskal-Wallis followed by a Dunn post hoc test. P<0.05 was considered statistically significant in both cases. Prism 4 software (GraphPad Software, Inc.) was used for the analysis and graphs.

rabbit eye [3] = assay: Clinical evaluation by slit lamp (clinical score), rabbit paracentesis model; set-up: key to Clinical Score −180 min / Clinical Score −5 min / Clinical Score +115 min: 0: normal; 1: discrete dilatation of iris and conjunctival vessels; 2: moderate dilatation of iris and conjunctival vessels; 3: intense iridal hyperemia with flare in the anterior chamber; 4: intense iridal hyperemia with flare in the anterior chamber and presence of fibrinous exudates; conditions: for Clinical Score −5 min: 5 min before the first paracentesis; for Clinical Score −5 min / Clinical Score +115 min / Clinical Score −180 min: individual eyes; for Clinical Score +115 min: 5 min before the second paracentesis; for Clinical Score −180 min: basal
[4] = test system: PGE2 in the aqueous humor; assay: Prostaglandin E2 (PGE2) measurement in aqueous humor, rabbit paracentesis model; conditions: for PGE2 in aqueous humor, statistical significance versus CTR: p<0.05; for PGE2 in aqueous humor, Mean / PGE2 in aqueous humor: second paracentesis; for PGE2 in aqueous humor: individual eyes
Procedure: as §1
For the quantitative determination of PGE2 in the aqueous humor we used the PGE2 Immunoassay kit (R&D Systems; Cat. No. KGE004; Lot. No. 240010). Eleven microliters or 16 μl of aqueous humor were diluted to 110 μl or 160 μl with the calibrator diluent solution provided with the kit. One hundred microliters of samples and of standards were load into a 96-well plate and recorded in a plate layout. Samples were treated following the assay procedure described in the kit. A microplate reader (GDV, Italy; model DV 990 B/V6) set at 450 nm (wavelength correction at 540 nm) was used for making the calibration and analyzing the samples.
as §2

[5] = test system: protein concentration in the aqueous humor; assay: Protein measurement in aqueous humor, rabbit paracentesis model; conditions: for Protein in aqueous humor, Mean / Protein in aqueous humor: second paracentesis; for Protein in aqueous humor: individual eyes
Procedure: as §1
For protein concentration determination in the aqueous humor we used the Protein Quantification Kit (Fluka; Cat. No. 77371; Lot. No. 1303129). Five microliters of aqueous humor were diluted to 100 μl with water. Twenty microliters of samples and of standards were load into a 96-well plate and recorded in a plate layout. Samples were treated following the assay procedure described in the kit. A microplate reader (GDV, Italy; model DV 990 B/V6) set at 670 nm was used for making the calibration and analyzing the samples.
as §2

leukocytes (PMN) = assay: Leukocytes (PMN) measurement in aqueous humor, rabbit paracentesis model; conditions: second paracentesis; for PMN in aqueous humor: individual eyes
Procedure: as §1
For the determination of the number of leukocytes we used a haemocytometer (Improved Neubauer Chamber; Bright-line. Hausser Scientific) and a Polyvar 2 microscope (Reichert-Jung).
as §2

Myeloperoxidase (MPO) = Myeloperoxidase (MPO) activity in iris-ciliary body, rabbit paracentesis model; conditions: for MPO Unit/g: iris-ciliary body samples collected after the second paracentesis, individual eyes (DX/SX); for MPO activity in iris-ciliary body, Mean: after the second paracentesis
Procedure: as §1
The activity of MPO was measured as previously described by Williams et al. The iris-ciliary bodies were carefully dried, weighed and immersed in 1 ml of hexa-decyl-trimethyl-ammonium bromide solution. Then, the samples were sonicated for 10 sec on ice by a ultrasound homogenizer (HD 2070, Bandelin electronic), freeze-thawed three times, sonicated for 10 sec and centrifuged at 14,000 g for 10 min to remove cellular debris. An aliquot of the supernatant (40-200 μl) was diluted to 3 ml with the o-dianisidine 2HCl/H2O2 solution. The change in absorbance at 460 nm was continuously monitored for 5 min by a spectrophotometer (UV/Vis Spectrometer Lambda EZ 201; Perkin Elmer). The slope of the line (Δ/min) was determined for each sample and used to calculate the number of units of MPO in the tissue as follows:
were ε=11.3 mM^−1. Values were expressed as units of MPO/g of tissue.
as §2

[6] = 5 mg/g BOL-303242-X ([…]) topical 4 x daily, individual rabbits, Group C
[7] = 1 mg/g BOL-303242-X (0.05 mg/dose) topical 4 x daily, individual rabbit, Group D
[8] = 0.5% topical formulation, +115 min, 8 eyes

Cc1ccc2c(NC[C@](O)(CC(C)(C)c3cc(F)cc4c3OCC4)C(F)(F)F)cccc2n1 [BOL-30324 2-X]
Day of Death (day euthanized or found dead) [1, 6]: 17 | Recorded Notes (mortality) [1, 6]: Euthanized due to severe diarrhea.

Cc1ccc2c(NC[C@](O)(CC(C)(C)c3cc(F)cc4c3OCC4)C(F)(F)F)cccc2n1 [BOL-303242 X]
Day of Death (day euthanized or found dead) [1, 7]: 29 | Recorded Notes (mortality) [1, 7]: Found dead.

CC(C(=O)O)c1ccc(-c2ccccc2)c(F)c1 (stereo not drawn) [F, flurbiprofen, reference compound]
Pupillary diameter T2: −5 min (rabbit eye [2]; 0.03% topical formulation): 6.0 mm (3×) and 6.5 mm (3×) and 7.0 mm and 5.5 mm | Pupillary diameter T3: +115 min (rabbit eye [2]; 0.03% topical formulation): 4.0 mm and 3.5 mm and 5.5 mm (2×) and 5.0 mm (2×) and 4.5 mm and 6.0 mm | Pupillary diameter Δ(T3 − T1) (rabbit eye [2]; 0.03% topical formulation): −1.0 mm (3×) and −1.5 mm (3×) and 0.0 mm (2×) | Pupillary diameter T1: −180 min (rabbit eye [2]; 0.03% topical formulation): 5.0 mm (2×) and 7.0 mm and 6.0 mm (4×) and 5.5 mm | Clinical Score −5 min (rabbit eye [3]; 0.03% topical formulation): 0 | Clinical Score +115 min (rabbit eye [3]; 0.03% topical formulation): 2 | Clinical score as percentage of eyes, Score (%) 2 (rabbit eye [3]; 0.03% topical formulation, +115 min, 8 eyes): 100% | Clinical Score −180 min (rabbit eye [3]; 0.03% topical formulation): 0 | Clinical score as percentage of eyes, Score (%) 0 (rabbit eye [3]; 0.03% topical formulation, −5 min, 8 eyes): 100% | Clinical score as percentage of eyes, Score (%) 0 (rabbit eye [3]; 0.03% topical formulation, −180 min (basal), 8 eyes): 100% | PGE2 in aqueous humor, statistical significance versus CTR ([4]; 0.03% topical formulation): statistically significant versus CTR | PGE2 in aqueous humor, Mean ([4]; 0.03% topical formulation): 1.189 ng/mL | PGE2 in aqueous humor ([4]; 0.03% topical formulation): 1.04 ng/ml and 0.75 ng/ml and 0.85 ng/ml and 1.11 ng/ml and 2.11 ng/ml (2×) and 0.93 ng/ml and 0.61 ng/ml | Protein in aqueous humor, statistical significance vs CTR ([5]; 0.03% topical formulation, p<0.001): statistical significance | Protein in aqueous humor, Mean ([5]; 0.03% topical formulation): 20.910 mg/mL | Protein in aqueous humor ([5]; 0.03% topical formulation): 20.78 mg/mL and 28.80 mg/mL and 23.41 mg/mL and 20.21 mg/mL and 17.53 mg/mL and 15.12 mg/mL and 20.52 mg/mL | PMN in aqueous humor, Mean (leukocytes (PMN); 0.03% topical formulation): 30.000 number/μl | PMN in aqueous humor (leukocytes (PMN); 0.03% topical formulation): 50 number/μl and 40 number/μl (2×) and 20 number/μl (2×) and 10 number/μl and 30 number/μl | MPO Unit/g (Myeloperoxidase (MPO); 0.03% F): 1.10 Unit/g and 1.70 Unit/g and 0.34 Unit/g and 0.75 Unit/g and 0.74 Unit/g and 0.63 Unit/g and 0.73 Unit/g and 1.27 Unit/g | MPO activity in iris-ciliary body, Mean (Myeloperoxidase (MPO); 0.03% topical formulation): 0.906 MPO Unit/g

CCOC(=O)O[C@]1(C(=O)OCCl)CC[C@H]2[C@@H]3CCC4=CC(=O)C=C[C@]4(C)[C@H]3[C@@H](O)C[C@@]21C [LE, loteprednol etabonate, reference compound]
Pupillary diameter T2: −5 min (rabbit eye [2]; 0.5% topical formulation): 6.0 mm (3×) and 6.5 mm (5×) | Pupillary diameter T3: +115 min (rabbit eye [2]; 0.5% topical formulation): 4.5 mm and 5.0 mm (2×) and 5.5 mm (2×) and 6.0 mm (3×) | Pupillary diameter Δ(T3 − T1) (rabbit eye [2]; 0.5% topical formulation): −1.5 mm (2×) and −1.0 mm (3×) and 0.0 mm and −0.5 mm (2×) | Pupillary diameter T1: −180 min (rabbit eye [2]; 0.5% topical formulation): 6.0 mm (3×) and 6.5 mm (5×) | Clinical Score −5 min (rabbit eye [3]; 0.5% topical formulation): 0 | Clinical Score +115 min (rabbit eye [3]; 0.5% topical formulation): 2 (2×) and 1 (6×) | Clinical score as percentage of eyes, Score (%) 1 (rabbit eye [3]; [8]): 75% | Clinical score as percentage of eyes, Score (%) 2 (rabbit eye [3]; [8]): 25% | Clinical Score −180 min (rabbit eye [3]; 0.5% topical formulation): 0 | Clinical score, difference versus CTR (rabbit eye [3]; 0.5% topical formulation, p<0.05): significant difference versus CTR | Clinical score as percentage of eyes, Score (%) 0 (rabbit eye [3]; 0.5% topical formulation, −5 min, 8 eyes): 100% | Clinical score as percentage of eyes, Score (%) 0 (rabbit eye [3]; 0.5% topical formulation, −180 min (basal), 8 eyes): 100% | PGE2 in aqueous humor, statistical significance versus CTR ([4]; 0.5% topical formulation): statistically significant versus CTR | PGE2 in aqueous humor, Mean ([4]; 0.5% topical formulation): 0.672 ng/mL | PGE2 in aqueous humor ([4]; 0.5% topical formulation): ^2N/D and 0.23 ng/ml and 0.68 ng/ml and 1.10 ng/ml | Protein in aqueous humor, Mean ([5]; 0.5% topical formulation): 33.905 mg/mL | Protein in aqueous humor ([5]; 0.5% topical formulation): 36.14 mg/mL and 39.10 mg/mL and 34.69 mg/mL and 26.10 mg/mL and 26.30 mg/mL and 28.16 mg/mL and 40.90 mg/mL and 39.85 mg/mL | PMN in aqueous humor, Mean (leukocytes (PMN); 0.5% topical formulation): 28.333 number/μl | PMN in aqueous humor (leukocytes (PMN); 0.5% topical formulation): 40 number/μl (2×) and 20 number/μl (3×) and 30 number/μl | MPO Unit/g (Myeloperoxidase (MPO); 0.5% LE): 0.30 Unit/g and 0.51 Unit/g and 0.81 Unit/g and 0.60 Unit/g and 0.73 Unit/g and 1.01 Unit/g | MPO activity in iris-ciliary body, Mean (Myeloperoxidase (MPO); 0.5% topical formulation): 0.661 MPO Unit/g
